# Read-outs that look alike come from different tables or passages of the source.
# How the values were obtained:
# [1] = molecular target: T1, SARS-CoV-2 PL^pro (Severe acute respiratory syndrome coronavirus 2, UniProt P0DTD1); conditions: cited from earlier work
# [2] = molecular target: T1, SARS-CoV-2 PL^pro; assay: biochemical; conditions: for IC50: 60 min incubation
# [3] = molecular target: T1, SARS-CoV-2 PL^pro; assay: biochemical; conditions: Ub-AMC substrate, 60 min incubation
# [4] = molecular target: SARS-CoV PL^pro (Severe acute respiratory syndrome coronavirus, UniProt P0C6X7); assay: biochemical
# [5] = molecular target: MERS-CoV PL^pro (Middle East respiratory syndrome-related coronavirus, UniProt K9N7C7); assay: biochemical
# Chain of MERS-CoV PL^pro (K9N7C7 1552-1823 limits assumed): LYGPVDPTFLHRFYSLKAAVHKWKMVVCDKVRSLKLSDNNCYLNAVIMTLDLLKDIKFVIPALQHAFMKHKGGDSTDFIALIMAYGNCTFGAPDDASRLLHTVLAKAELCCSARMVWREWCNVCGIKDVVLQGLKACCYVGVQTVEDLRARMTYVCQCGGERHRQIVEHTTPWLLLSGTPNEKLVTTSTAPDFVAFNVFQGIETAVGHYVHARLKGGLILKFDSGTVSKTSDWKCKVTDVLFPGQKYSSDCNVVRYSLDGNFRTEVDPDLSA
# [6] = molecular target: T1, SARS-CoV-2 PL^pro; assay: biochemical; conditions: 50 nM protease; for Ki: read-out: Ki (binding affinity of initial reversible binding); for kinact: read-out: kinact (rate constant of covalent bond formation) (converted)
# [7] = molecular target: T1, SARS-CoV-2 PL^pro; type: binding; conditions: 40 μM protease, 200 μM compound; for Tm of SARS-CoV-2 PLpro incubated with compound: apo protease 43.3 °C
# [8] = molecular target: T1, SARS-CoV-2 PL^pro; assay: cell-based; conditions: HEK293T cells; for EC50: 48 h
# [9] = Cytotoxicity, cell counting kit-8 (CCK8) assay; conditions: human, CC50, HEK293T cells
# [10] = tested on: HEK293T cells; assay: Cytotoxicity, cell counting kit-8 (CCK8) assay; conditions: HEK293T cells, 24 h
Compound,IC50 ([2]; RLRGG-AMC substrate),IC50 [3],kinact/KI [6],Ki [6],kinact [6],Tm of SARS-CoV-2 PLpro incubated with compound [7],EC50 [8],CC50 at 24 h [9],CC50 [10],further results
COC(=O)/C=C/CNC(=O)CNC(=O)[C@H](CN)NC(=O)[C@H](CCc1nc2ccccc2s1)NC(C)=O [VIR250],,,,,,,,,,IC50 ([1]; read-out: IC50): ~50 µM
COC(=O)/C=C/CNC(=O)CNC(=O)[C@H](CN)NC(=O)[C@H](CCc1ccc(O)cc1)NC(C)=O [VIR251],,,,,,,,,,IC50 [1]: ~50 µM
"COC(=O)/C=C/CNC(=O)CNC(=O)CNC(=O)C1CCN(C(C)c2cccc3ccccc23)CC1 (stereo not drawn) [compound 2, Methyl (E)-4-(2-(2-(1-(1-(Naphthalen-1-yl)ethyl)piperidine-4-carboxamido)acetamido)acetamido)but-2-enoate]",0.46 µM,0.46 µM,160 M⁻¹ s⁻¹,5.32 µM,0.00085 s⁻¹,68.0 °C,3.61 µM,~180 µM,~180 µM,"change in inhibitory activities in the presence and absence of DTT ([2]; 4 mM DTT, varied concentrations): no apparent change; improvement in potency (IC50) compared to VIR251 ([2]; RLRGG-AMC substrate): about 100 fold; improvement in potency (IC50) compared to compound 1 ([2]; RLRGG-AMC substrate): ~5 fold; increase in potency (IC50) compared to positive control GRL0617 ([2]; RLRGG-AMC substrate): 2 fold; IC50 [4]: 0.39 µM; IC50 [5]: > 100 µM; inhibitory activity towards MERS-CoV PLpro [5]: basically ineffective; improvement in EC50 compared to GRL0617 [8]: ~ 4.4 fold"
"COC(=O)/C=C/C(=O)NNC(=O)CCc1ccccc1C(=O)NC(C)c1cccc2ccccc12 (stereo not drawn) [compound 3, reference compound]",,,,,,,,58.3 ± 22.1 µM,58.3 µM,
"COC(=O)/C=C/C(=O)NNC(=O)CNC(=O)CNC(=O)C1CCN(C(C)c2cccc3ccccc23)CC1 (stereo not drawn) [compound 4, Methyl (E)-4-(2-((1-(1-(Naphthalen-1-yl)ethyl)piperidine-4-carbonyl)glycylglycyl)hydrazinyl)-4-oxobut-2-enoate]",0.23 µM,0.32 µM,265 M⁻¹ s⁻¹,4.65 µM,0.00123 s⁻¹,,> 200 µM,> 200 µM,,inhibitory potency higher than compound 2 ([2]; enzymatic inhibition assay): ~ 1 fold; Tm increase compared to apo protease [7]: 15.1 °C; inhibitory effect in cell-based protease assay [8]: hardly has an inhibitory effect
GRL0617 [reference compound],,,,,,50.4 °C,,,> 200 µM,
